Assay results: patent publication US9102620B2, “Deuterated N-ethyl-N-phenyl-1,2-dihydro-4-hydroxy-5-chloro-1-methyl-2-oxoquinoline-3-carboxamide, salts and uses thereof” (TEVA PHARMACEUTICAL INDUSTRIES, LTD., priority 2010, dated 2015)
Values joined by “and” are separate entries in the source; they are usually repeats but may differ in a detail not shown here. Identical values can stand only once. Like-named read-outs stand apart in the source and are kept apart here.

Assays:
CYP3A4/5 = settings: human, 3 days; for Enzyme activity, Midazolam 1′-hydroxylation (CYP3A4/5) / Percent positive control, Midazolam 1′-hydroxylation (CYP3A4/5) activity: hepatocytes
Protocol: (§1) After treatment, the cells were incubated in situ with marker substrates for the analysis of phenacetin O-dealkylation (marker for CYP1A2) and midazolam 1′-hydroxylation (marker for CYP3A4/5) by LC/MS/MS.
(§2) Incubations of hepatocytes with probe substrates were conducted in accordance with SOP L5041.02. Approximately 24 hours after the last treatment, spent media was aspirated from the wells, and each well was rinsed two times with pre-warmed (37±2° C.) fresh culture media. Media was aspirated from the wells and reactions were started by addition of 200 μL pre-warmed media containing the probe substrate to each well. […] At 30 minutes, an aliquot (150 μL) of the incubation mixture was removed and added to a well of a 96-well plate containing 300 μL of stop reagent (acetonitrile) and internal standard (Table 2). The mixtures were mixed thoroughly and allowed to sit for at least 15 minutes at 2-8° C. Samples were centrifuged at 2000×g for 10 minutes at 2-8° C., and supernatant fractions were analyzed by LC/MS/MS.
(§3) All analyses were performed with validated LC/MS/MS methods. The procedures used for the analysis of each metabolite followed the applicable LC/MS/MS analytical method SOPs and are summarized in Table 2. The MS equipment was either an ABI Sciex (Applied Biosystems/MDS SCIEX) API 4000 or API 3000 instrument with Shimadzu HPLC pumps and autosampler systems.
(§4) Individual rates of reaction from like treatment groups were averaged, and for those groups with n≧3, standard deviations were determined. Fold increases were determined by dividing the enzymatic rate for each treatment group by that of the vehicle control. Percent positive control was calculated with the following equation: […]

CYP1A2 = settings: human, 3 days; for Enzyme activity, Phenacetin O-dealkylation (CYP1A2) / Percent positive control, Phenacetin O-dealkylation (CYP1A2) activity: hepatocytes
Protocol: as §1, §2, §3, §4

[1] = Pharmacokinetic profile in rat plasma following oral administration; assay type: in vivo
Protocol: The main objectives of this example were: • Quantification of Compound 1, Compound 2, Compound 3 and Laquinimod in rat plasma using LC/MS/MS bioanalytical method. • Characterization of the pharmacokinetic profile of Compound 1, Compound 2, Compound 3 and Laquinimod following oral (PO) administration at a dose of 0.2 mg/kg. • The measurement DELAQ concentrations in the collected plasma samples. Rats cannulated at the right common jugular vein by polyethylene tubing were used. In the in-life part, three cannulated female rats were treated with each of the four test articles at dose of 0.2 mg/kg. Blood was withdrawn from the rats at five different time points for the preparation of plasma. The concentrations of Compound 1, Compound 2, Compound 3, laquinimod, and DELAQ were determined in these plasma samples, using applicable LC/MS/MS methods. Oral administration was performed by oral gavage at a dosage volume of 5 ml/kg using a blunt feeding stainless steel needle (Popper & Sons, USA). Body weights were measured before dose administration and doses were calculated on the basis of individual body weight. Blood were withdrawn from animals at the following time points: 1, 2, 4, 8 and 24 hours after dosing as detailed in the table below. The actual sampling time were recorded. Each animal was restrained firmly. After the removal of the seal the port of the cannula was accessed with an appropriate blunted needle mounted on a syringe containing PBS. After having withdrawn approximately 100 μL of blood, the syringe was changed to a clean heparinized syringe. Approximately 250 μL of blood was collected for the preparation of plasma. The first 100 μL fraction of blood was returned and 250 μL of PBS was given to the animal through the catheter. The catheter was filled by heparinized glycerol (100 IU/ml) solution prepared by mixing 10 ml stock heparin (200 IU/ml) with 10 ml of sterile glycerol (d=1.26 g/mL). Blood specimens were mixed immediately and were placed on water ice. Whole blood was centrifuged at 2500 g for 10 min at 4° C., and the separated plasma was transferred into pre-labeled polypropylene tubes and the tubes were frozen at −70° C. within 70 minutes of collection. The concentrations of test items (Compound 1, Compound 2, Compound 3 and Laquinimod) and the concentration of DELAQ were determined in the plasma samples by using reliable LC/MS/MS assay. Pharmacokinetic parameters were calculated and the mean plasma levels versus time curves were evaluated. The following pharmacokinetic parameters were determined from the mean plasma concentration-time data (mean of three animals at each time point) of Compound 1, Compound 2, Compound 3 and Laquinimod.

[2] = female, rat, po, 0.2 mg/kg, Average of rats
[3] = female, rat, po, 0.2 mg/kg, Average of rats, read-out: Cmax
[4] = female, rat, po, 0.2 mg/kg, Average of rats, read-out: Tmax
[5] = female, rat, po, 0.2 mg/kg, individual rats
[6] = female, rat, po, 0.2 mg/kg, individual rats, read-out: Cmax
[7] = female, rat, po, 0.2 mg/kg, individual rats, read-out: Tmax
[8] = individual rats, oral 0.2 mg/kg

## [2H]C([2H])([2H])C([2H])([2H])N(C(=O)c1c(O)c2c(Cl)cccc2n(C)c1=O)c1ccccc1 [Compound 2, N-D5-ethyl-N-phenyl-1,2-dihydro-4-hydroxy-5-chloro-1-methyl-2-oxoquinoline-3-carboxamide]
CYP3A4/5; 0.01 μM
  Fold Increase, Midazolam 1′-hydroxylation (CYP3A4/5) activity: 0.91 fold
  Enzyme activity, Midazolam 1′-hydroxylation (CYP3A4/5): 0.179 ± 0.006 pmol/mg protein/min
  Percent positive control, Midazolam 1′-hydroxylation (CYP3A4/5) activity: −2.24%
CYP3A4/5; 0.05 μM
  Fold Increase, Midazolam 1′-hydroxylation (CYP3A4/5) activity: 0.77 fold
  Enzyme activity, Midazolam 1′-hydroxylation (CYP3A4/5): 0.151 ± 0.009 pmol/mg protein/min
  Percent positive control, Midazolam 1′-hydroxylation (CYP3A4/5) activity: −5.94%
CYP3A4/5; 0.1 μM
  Fold Increase, Midazolam 1′-hydroxylation (CYP3A4/5) activity: 0.72 fold
  Enzyme activity, Midazolam 1′-hydroxylation (CYP3A4/5): 0.140 ± 0.010 pmol/mg protein/min
  Percent positive control, Midazolam 1′-hydroxylation (CYP3A4/5) activity: −7.46%
CYP3A4/5; 1 μM
  Fold Increase, Midazolam 1′-hydroxylation (CYP3A4/5) activity: 0.56 fold
  Enzyme activity, Midazolam 1′-hydroxylation (CYP3A4/5): 0.109 ± 0.010 pmol/mg protein/min
  Percent positive control, Midazolam 1′-hydroxylation (CYP3A4/5) activity: −11.5%
CYP3A4/5; 10 μM
  Fold Increase, Midazolam 1′-hydroxylation (CYP3A4/5) activity: 0.51 fold
  Enzyme activity, Midazolam 1′-hydroxylation (CYP3A4/5): 0.101 ± 0.003 pmol/mg protein/min
  Percent positive control, Midazolam 1′-hydroxylation (CYP3A4/5) activity: −12.7%
CYP1A2; 0.01 μM
  Fold Increase, Phenacetin O-dealkylation (CYP1A2) activity: 7.39 fold
  Enzyme activity, Phenacetin O-dealkylation (CYP1A2): 22.1 ± 2.7 pmol/mg protein/min
  Percent positive control, Phenacetin O-dealkylation (CYP1A2) activity: 23.3%
CYP1A2; 0.05 μM
  Fold Increase, Phenacetin O-dealkylation (CYP1A2) activity: 10.54 fold
  Enzyme activity, Phenacetin O-dealkylation (CYP1A2): 31.6 ± 2.6 pmol/mg protein/min
  Percent positive control, Phenacetin O-dealkylation (CYP1A2) activity: 34.9%
CYP1A2; 0.1 μM
  Fold Increase, Phenacetin O-dealkylation (CYP1A2) activity: 16.12 fold
  Enzyme activity, Phenacetin O-dealkylation (CYP1A2): 48.2 ± 2.4 pmol/mg protein/min
  Percent positive control, Phenacetin O-dealkylation (CYP1A2) activity: 55.2%
CYP1A2; 1 μM
  Fold Increase, Phenacetin O-dealkylation (CYP1A2) activity: 30.36 fold
  Enzyme activity, Phenacetin O-dealkylation (CYP1A2): 90.8 ± 11.5 pmol/mg protein/min
  Percent positive control, Phenacetin O-dealkylation (CYP1A2) activity: 107%
CYP1A2; 10 μM
  Fold Increase, Phenacetin O-dealkylation (CYP1A2) activity: 60.21 fold
  Enzyme activity, Phenacetin O-dealkylation (CYP1A2): 180 ± 8 pmol/mg protein/min
  Percent positive control, Phenacetin O-dealkylation (CYP1A2) activity: 216%
[1]; [2]
  AUC(0-inf): 12300 ng·h/mL
  AUC(0-t): 10300 ng·h/mL
  half-life: 13.8 h
[1]; [3]
  Cmax: 725 ng/mL
[1]; [4]
  Tmax: 1.8 h
[1]; [5]
  AUC(0-inf): 10000 ng·h/mL
  AUC(0-t): 10000 ng·h/mL
  half-life: 13.6 h
[1]; [6]
  Cmax: 704 ng/mL
[1]; [7]
  Tmax: 2 h
[1]; [8]
  AUCinf: 14699.6 ng·h/mL and 12439.0 ng·h/mL and 11975.3 ng·h/mL
  AUClast: 10422.1 ng·h/mL and 8741.6 ng·h/mL and 11975.3 ng·h/mL
  Cmax: 827.6 ng/mL and 551.4 ng/mL and 816.2 ng/mL
  T1/2: 13.4 h and 14.6 h
  Tmax: 1.0 h

## CCN(C(=O)c1c(O)c2c(Cl)cccc2n(C)c1=O)c1ccccc1 [Laquinimod, N-ethyl-N-phenyl-1,2-dihydro-4-hydroxy-5-chloro-1-methyl-2-oxoquinoline-3-carboxamide]
CYP3A4/5; 0.01 μM
  Fold Increase, Midazolam 1′-hydroxylation (CYP3A4/5) activity: 0.92 fold
  Enzyme activity, Midazolam 1′-hydroxylation (CYP3A4/5): 0.180 ± 0.023 pmol/mg protein/min
  Percent positive control, Midazolam 1′-hydroxylation (CYP3A4/5) activity: −2.04%
CYP3A4/5; 0.05 μM
  Fold Increase, Midazolam 1′-hydroxylation (CYP3A4/5) activity: 0.82 fold
  Enzyme activity, Midazolam 1′-hydroxylation (CYP3A4/5): 0.161 ± 0.013 pmol/mg protein/min
  Percent positive control, Midazolam 1′-hydroxylation (CYP3A4/5) activity: −4.63%
CYP3A4/5; 0.1 μM
  Fold Increase, Midazolam 1′-hydroxylation (CYP3A4/5) activity: 0.78 fold
  Enzyme activity, Midazolam 1′-hydroxylation (CYP3A4/5): 0.151 ± 0.002 pmol/mg protein/min
  Percent positive control, Midazolam 1′-hydroxylation (CYP3A4/5) activity: −5.89%
CYP3A4/5; 1 μM
  Fold Increase, Midazolam 1′-hydroxylation (CYP3A4/5) activity: 0.54 fold
  Enzyme activity, Midazolam 1′-hydroxylation (CYP3A4/5): 0.106 ± 0.004 pmol/mg protein/min
  Percent positive control, Midazolam 1′-hydroxylation (CYP3A4/5) activity: −12.0%
CYP3A4/5; 10 μM
  Fold Increase, Midazolam 1′-hydroxylation (CYP3A4/5) activity: 0.49 fold
  Enzyme activity, Midazolam 1′-hydroxylation (CYP3A4/5): 0.0957 ± 0.0067 pmol/mg protein/min
  Percent positive control, Midazolam 1′-hydroxylation (CYP3A4/5) activity: −13.4%
CYP1A2; 0.01 μM
  Fold Increase, Phenacetin O-dealkylation (CYP1A2) activity: 8.43 fold
  Enzyme activity, Phenacetin O-dealkylation (CYP1A2): 25.2 ± 0.8 pmol/mg protein/min
  Percent positive control, Phenacetin O-dealkylation (CYP1A2) activity: 27.1%
CYP1A2; 0.05 μM
  Fold Increase, Phenacetin O-dealkylation (CYP1A2) activity: 18.06 fold
  Enzyme activity, Phenacetin O-dealkylation (CYP1A2): 54.0 ± 4.5 pmol/mg protein/min
  Percent positive control, Phenacetin O-dealkylation (CYP1A2) activity: 62.3%
CYP1A2; 0.1 μM
  Fold Increase, Phenacetin O-dealkylation (CYP1A2) activity: 21.75 fold
  Enzyme activity, Phenacetin O-dealkylation (CYP1A2): 65.1 ± 1.9 pmol/mg protein/min
  Percent positive control, Phenacetin O-dealkylation (CYP1A2) activity: 75.8%
CYP1A2; 1 μM
  Fold Increase, Phenacetin O-dealkylation (CYP1A2) activity: 43.79 fold
  Enzyme activity, Phenacetin O-dealkylation (CYP1A2): 131 ± 12 pmol/mg protein/min
  Percent positive control, Phenacetin O-dealkylation (CYP1A2) activity: 156%
CYP1A2; 10 μM
  Fold Increase, Phenacetin O-dealkylation (CYP1A2) activity: 61.02 fold
  Enzyme activity, Phenacetin O-dealkylation (CYP1A2): 183 ± 7 pmol/mg protein/min
  Percent positive control, Phenacetin O-dealkylation (CYP1A2) activity: 219%
[1]; [2]
  AUC(0-inf): 15500 ng·h/mL
  AUC(0-t): 11700 ng·h/mL
  half-life: 11.8 h
[1]; [3]
  Cmax: 794 ng/mL
[1]; [4]
  Tmax: 1.7 h
[1]; [5]
  AUC(0-inf): 14700 ng·h/mL
  AUC(0-t): 11000 ng·h/mL
  half-life: 12 h
[1]; [6]
  Cmax: 770 ng/mL
[1]; [7]
  Tmax: 2 h
[1]; [8]
  AUCinf: 17141.8 ng·h/mL and 14684.6 ng·h/mL
  AUClast: 12659.7 ng·h/mL and 11487.3 ng·h/mL
  Cmax: 774.8 ng/mL and 838.8 ng/mL
  T1/2: 12.4 h and 10.9 h
  Tmax: 1.0 h
